Values of other authors in article PMC5483895 (Journal of Medicinal Chemistry, 2017).
Read-outs that look alike come from different tables or passages of the source. Each block holds one molecule with its values, some of them ahead of it.

Assays:
CCR5 [1] = details: mutation of I198 5.42 in CCR5, range over all ligands named
CXCR3 [2] = details: CXCR3 mutant Y271 6.51 A
CXCR3 [3] = details: CXCR3 mutant W268 6.48 A
CXCR4 [4] = details: mutation of H203 5.42 in CXCR4, range over the ligands named
CXCR4 [5] = details: CXCR4 virtual screening hits
CXCR4 [6] = details: CXCR4 mutant I259 6.55 A
CCR5 [7] = system: CCR5
CX3CR1 = details: mutations of Lys14, Lys18, Phe49 of the chemokine

Molecule: CC#CCN1C(=O)[C@H]([C@@H](O)C2CCCCC2)NC(=O)C12CCN(Cc1c(C)nn(-c3ccccc3)c1C)CC2 [compound 23]
fold decrease in affinity and/or potency (CCR5 [1]): 3–125 fold

fold decrease of binding (CXCR3 [2]): more than 10 fold
Molecule: CXCL11: chemokine, CXCR3 ligand
fold decrease of potency (CXCR3 [3]): more than 10 fold

Molecule: c1ccc(CNCc2ccc(CN3CCCNCCNCCCNCC3)cc2)nc1 [compound 2]
fold effect on affinity/potency (CXCR4 [4]): 3–5 fold

Molecule: Cc1ccc(-c2nc3n(c2/C=N/N=C(N)N)CCS3)cc1 [compound 76]
affinity (CXCR4 [5]): 225 µM

Molecule: Maraviroc [compound 16]
fold decrease in affinity and/or potency (CCR5 [1]): 3–125 fold

Molecule: CXCL12: endogenous chemokine ligand of CXCR4
fold effect on potency (CXCR4 [6]): 8 fold

Molecule: COC[C@@H](c1ccc(C(F)(F)F)cc1)N1CCN(C2(C)CCN(C(=O)c3c(C)ncnc3C)CC2)C[C@@H]1C [compound 17, Vicriviroc]
fold decrease in affinity and/or potency (CCR5 [1]): 3–125 fold

Molecule: Cc1nc(CN(C)CC2CCCN(CCc3ccccc3C)C2)c[nH]1 (stereo not shown) [compound 78]
affinity (CXCR4 [5]): 0.31 µM

Molecule: Cc1ccc(-c2ccc3c(c2)C=C(C(=O)Nc2ccc(C[N+](C)(C)C4CCOCC4)cc2)CCC3)cc1.[Cl-] [compound 19]
fold decrease in affinity and/or potency (CCR5 [1]): 3–125 fold

fold effect on binding (CCR5 [7]; CCR5 mutant W248 6.48 A): 10 fold
fold effect on binding (CCR5 [7]; CCR5 mutant Y251 6.51 A/I): 7 fold
Molecule: CCL3: CC chemokine

fold reduction of affinity for the receptor (CX3CR1): more than 10 fold
B1: CX3CL1: human CX3C chemokine (protein, UniProt P78423 25-397, looked up)
Fractalkine: QHHGVTKCNITCSKMTSKIPVALLIHYQQNQASCGKRAIILETRQHRLFCADPKEQWVKDAMQHLDRQAAALTRNGGTFEKQIGEVKPRTTPAAGGMDESVVLEPEATGESSSLEPTPSSQEAQRALGTSPELPTGVTGSSGTRLPPTPKAQDGGPVGTELFRVPPVSTAATWQSSAPHQPGPSLWAEAKTSEAPSTQDPSTQASTASSPAPEENAPSEGQRVWGQGQSPRPENSLEREEMGPVPAHTDAFQDWGPGSMAHVSVVPVSSEGTPSREPVASGSWTPKAEEPIHATMDPQRLGVLITPVPDAQAATRRQAVGLLAFLGLLFCLGVAMFTYQSLQGCPRKMAGEMAEGLRYIPRSCGSNSYVLVPV
